Assay results taken from PubChem BioAssay (NCI).
Several values for one entry are separate records, joined by “and”; a condition that tells them apart may be missing. Equal entries are not always repeated.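 48-hour exposure; five concentrations; linearly interpolated endpoints. Abbreviation: GI50, concentration required for 50% inhibition of growth. TGI is the concentration that stops growth completely.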

Tests used:
Assay in all cases: inhibition of tumour cell growth, NCI panel, 48 h
UACC-257 melanoma = tested on: UACC-257 melanoma
HCC-2998 colon = tested on: HCC-2998 colon
KM12 colon = tested on: KM12 colon
RXF 393 renal = tested on: RXF 393 renal
HCT-15 colon = tested on: HCT-15 colon
M14 melanoma = tested on: M14 melanoma
NCI-H23 lung = tested on: NCI-H23 lung
K-562 leukemia = tested on: K-562 leukemia
A549 NSCLC = tested on: A549 NSCLC
NCI-H226 lung = tested on: NCI-H226 lung

Row | SMILES | TGI (UACC-257 melanoma) | TGI (HCC-2998 colon) | TGI (KM12 colon) | TGI (RXF 393 renal) | TGI (HCT-15 colon) | TGI (M14 melanoma) | TGI (NCI-H23 lung) | TGI (K-562 leukemia) | TGI (A549 NSCLC) | GI50 (UACC-257 melanoma) | GI50 (HCC-2998 colon) | GI50 (KM12 colon) | GI50 (RXF 393 renal) | GI50 (HCT-15 colon) | GI50 (NCI-H226 lung) | TGI (NCI-H226 lung) | GI50 (M14 melanoma) | GI50 (NCI-H23 lung) | GI50 (A549 NSCLC) | GI50 (K-562 leukemia)
1 | Cc1ccc(/C=C2\CCCC(C(NO)c3ccc(C)cc3)C2=NO)cc1 (configuration not stated) | > 100 µM | 62 µM | 45.1 µM | 71.9 µM | > 100 µM | 85.4 µM | 73.2 µM | > 100 µM | > 100 µM |  |  |  |  |  |  |  |  |  |  | 
2 | CNc1ccc(CSc2ccc(C)cc2)cc1 | > 100 µM | 83.2 µM | > 100 µM | 87.2 µM | 35.6 µM | 32.6 µM | > 100 µM |  | > 100 µM | 36.1 µM | 18.8 µM | 8.58 µM | 11.4 µM | 12.6 µM | 3.43 µM | 16.4 µM | 13.6 µM | 25 µM | 5.34 µM | 
3 | CC1(C)O[C@@H](CCl)C[C@@H](C#N)O1 | > 100 µM | > 100 µM | > 100 µM | > 100 µM |  | > 100 µM | > 100 µM | > 100 µM | > 100 µM |  |  |  |  |  |  | > 100 µM |  |  |  | 
4 | CC(C)(C)OC(=O)CC(S(=O)(=O)c1ccccc1)S(=O)(=O)c1ccccc1 | 15.7 µM | 29.6 µM |  | 3.31 µM | 3.71 µM | 22.7 µM | 32.1 µM | 13.5 µM | 38.9 µM | 3.74 µM | 16 µM |  | 1.8 µM | 1.87 µM | 4.84 µM | 22.7 µM | 10.3 µM | 14.6 µM | 18.3 µM | 3.4 µM
5 | Nc1nc2c(ncn2C2OC(CO)C(O)C2O)c(=O)[nH]1 (configuration not stated) | > 100 µM and 282 µM | > 100 µM and 245 µM | > 100 µM and 224 µM | 162 µM | > 100 µM and 191 µM |  | 175 µM | > 100 µM and 233 µM | > 100 µM and 170 µM | > 100 µM and 20.8 µM | 78.7 µM | > 100 µM |  | > 100 µM and 20.7 µM |  | 224 µM |  |  | > 100 µM and 15.8 µM | > 100 µM
6 | CN(C)CCC(/C=C/c1ccccc1)=N\Nc1c(F)c(F)c(F)c(F)c1F | > 100 µM |  | > 100 µM | > 100 µM | > 100 µM | > 100 µM | > 100 µM | > 100 µM | > 100 µM |  |  |  |  |  |  |  |  |  |  | 
7 | CCOc1ccccc1NC(=O)C1=C(C)NC(C)=C(C(=O)Nc2ccccc2OCC)C1c1ccc2c(c1)OCO2 | > 100 µM | 54.9 µM | 50.7 µM | > 100 µM |  | 78.2 µM | > 100 µM | 70.3 µM | > 100 µM |  |  |  |  |  |  | > 100 µM |  |  |  | 
8 | Cc1c(C(=O)/C=C/c2ccc3c(c2)OCO3)[n+](=O)c2ccccc2n1[O-] | > 100 µM | 57.5 µM | 90.5 µM | 54.1 µM |  | > 100 µM | 42.4 µM | > 100 µM | > 100 µM |  |  |  |  |  |  | 60.9 µM |  |  |  | 
9 | O=C(NCCOC(=O)CCCCCCCCC(=O)OCCNC(=O)NC(=O)c1cn(Cc2ccccc2)c(=O)[nH]c1=O)NC(=O)c1cn(Cc2ccccc2)c(=O)[nH]c1=O | > 100 µM | > 100 µM | > 100 µM |  | > 100 µM | > 100 µM | > 100 µM | > 100 µM | > 100 µM |  |  |  |  |  |  | > 100 µM |  |  |  | 
10 | CC1(C)N=C(N)N=C(N)N1c1ccc(CCCCCCc2ccc(S(=O)(=O)F)cc2)cc1 |  | 16 µM |  | > 33.1 µM | 20.9 µM | 28.7 µM | 12.6 µM | > 33.3 µM | 2.76 µM |  |  |  |  |  |  | 1.96 µM |  |  |  | 
11 | COc1cc2c(cc1OC)C(Sc1ccc(Cl)cc1)c1c(nc(N)c(C#N)c1N)O2 (configuration not stated) | 2.96 µM | 3.25 µM | 3.35 µM | 2.77 µM | 2.66 µM | 3.1 µM |  | 8.28 µM | 3.36 µM | 1.58 µM | 1.72 µM | 1.75 µM | 1.39 µM | 1.19 µM |  |  | 1.63 µM |  | 1.75 µM | 0.791 µM
12 | COc1cc(COC(=O)N(C)[C@@H](Cc2ccccc2)C(=O)O)c([N+](=O)[O-])cc1OC | > 100 µM | > 100 µM | > 100 µM |  | > 100 µM | > 100 µM | > 100 µM | > 100 µM | > 100 µM |  |  |  |  |  |  | > 100 µM |  |  |  | 
13 | COc1ccc(C2NC(c3ccc(OC)cc3)C(C)C(=O)C2C)cc1 (configuration not stated) | > 100 µM | > 100 µM | > 100 µM | > 100 µM | > 100 µM | > 100 µM | > 100 µM | > 100 µM |  |  |  |  |  |  |  |  |  |  |  | 
14 | CCOc1ccc(N=Nc2c(-c3ccccc3)nn(C(=O)CC(=O)Nc3ccccc3Cl)c2-c2ccccc2)cc1 | > 100 µM | > 100 µM | > 100 µM | > 100 µM |  | > 100 µM | > 100 µM | > 100 µM | > 100 µM |  |  |  |  |  |  | > 100 µM |  |  |  | 
15 | COc1cc([N+](=O)[O-])c(S(=O)(=O)O)cc1-[n+]1nc(C(=O)Nc2ccccc2)nn1-c1ccc([N+](=O)[O-])c(S(=O)(=O)[O-])c1 |  | > 100 µM | > 100 µM | > 100 µM | > 100 µM | > 100 µM | > 100 µM | > 100 µM | > 100 µM |  |  |  |  |  |  | > 100 µM |  |  |  | 
16 | O=C(/C=C/c1ccccn1)c1ccccc1 | 9.25 µM | 29.9 µM | 15.5 µM | 13.1 µM | 12.9 µM |  | 34.8 µM | > 100 µM | 29.4 µM | 2.68 µM | 15.4 µM | 4.13 µM | 3.17 µM | 2.66 µM | 15.2 µM | 29.7 µM |  | 16.3 µM | 14.4 µM | 2.53 µM
17 | Cc1ncc([N+](=O)[O-])n1CCOc1ccc(C(=O)/C=C/c2ccc(C(F)(F)F)cc2)cc1 | 16.5 µM | 18.3 µM | 4.22 µM | 17.6 µM | 4.09 µM | 14.8 µM |  | 3.83 µM | 8.5 µM | 3.6 µM | 5.85 µM | 2.01 µM | 4.54 µM | 1.82 µM | 4.25 µM | 20.4 µM | 3.85 µM |  | 2.42 µM | 1.53 µM
18 | Cc1cc(N(CCC#N)CCC#N)ccc1/C=C1N=C(/C=C\c2ccccc2)N(c2ccc(C(=O)O)cc2)C\1=O | > 100 µM |  | > 100 µM |  | > 100 µM | > 100 µM | > 100 µM | > 100 µM | > 100 µM |  |  |  |  |  |  | > 100 µM |  |  |  | 
